Experiment [1] concerns the target T1, human RORγ (Homo sapiens, UniProt P51449).
T1 construct: human RORγ, from Ser253 to Lys518; expressed in transfected cells; host or cells: CHO cells (Chinese hamster ovary), transient co-transfection with pG5-Luc
T1 sequence (P51449 253-518): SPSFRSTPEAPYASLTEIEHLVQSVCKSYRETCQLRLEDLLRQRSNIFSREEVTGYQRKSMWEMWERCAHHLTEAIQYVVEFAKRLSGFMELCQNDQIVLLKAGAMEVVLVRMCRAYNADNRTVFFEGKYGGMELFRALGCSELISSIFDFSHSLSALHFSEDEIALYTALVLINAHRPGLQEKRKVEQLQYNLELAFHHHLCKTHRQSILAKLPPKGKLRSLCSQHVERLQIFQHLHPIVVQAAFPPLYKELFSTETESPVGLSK
Put plainly: In vitro assay of inhibitory effect against RORγ transcriptional activity (GAL4-hRORγ LBD luciferase reporter gene assay in CHO cells). It is filed as cell-based. The conditions noted are these: for hRORγ luciferase activity, %-of-control: value in parentheses beside the > EC50 bound, vehicle-control 0.2% DMSO alone = 100%. The essentials:
(§1)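 Transcriptional activity of human or mouse RORγ LBD, tethered to the GAL4 DNA-binding domain, is monitored by a GAL4-dependent firefly luciferase reporter in transiently transfected CHO cells. Test articles are incubated for 2 days; values are %-of-control or fitted EC50.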
For orientation: A reporter such as luciferase makes a cellular process visible.

The target of experiment [2] is T2, mouse RORγ (Mus musculus, UniProt P51450).
T2 construct: mouse RORγ, from Ile251 to Lys516; expressed in transfected cells; host or cells: CHO cells (Chinese hamster ovary), transient co-transfection with pG5-Luc
T2 sequence (P51450 251-516): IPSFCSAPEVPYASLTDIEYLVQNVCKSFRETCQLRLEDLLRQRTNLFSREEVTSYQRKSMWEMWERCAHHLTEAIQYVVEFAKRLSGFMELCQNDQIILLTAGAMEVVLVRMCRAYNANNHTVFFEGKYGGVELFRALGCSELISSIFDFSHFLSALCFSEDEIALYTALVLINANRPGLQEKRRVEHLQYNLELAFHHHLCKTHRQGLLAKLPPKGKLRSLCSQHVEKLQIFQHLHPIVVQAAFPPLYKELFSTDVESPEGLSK
Put plainly: In vitro assay of inhibitory effect against RORγ transcriptional activity (GAL4-mRORγ LBD luciferase reporter gene assay in CHO cells). It is filed as cell-based. The conditions noted are these: for mRORγ luciferase activity, %-of-control: value in parentheses beside the > EC50 bound, vehicle-control 0.2% DMSO alone = 100%. The essentials: as §1

Setting [3] is: GAL4-hRORγ LBD / pG5-Luc in CHO cells, 2 days incubation.
[4] abbreviates: GAL4-mRORγ LBD / pG5-Luc in CHO cells, 2 days incubation.
Where [5] appears, read: GAL4-hRORγ LBD luciferase reporter, CHO cells, read-out: LUC EC50 hRORγ.
Setting [6] is: GAL4-mRORγ LBD luciferase reporter, CHO cells, read-out: LUC EC50 mRORγ.

The structures appear in SMILES notation. pEC50: −log10 of the molar value. Read-outs that look alike come from different tables or passages of the source.

These results are taken from patent publication US10196363B2, “Dihydropyrimidin-2-one compounds and medical use thereof” (JAPAN TOBACCO INC., priority 2014, dated 2019).

As a reminder, the pEC50 is the negative decadic logarithm of the EC50, by convention in mol/L. `CC(C)(C)CCc1ccc(C2(C)NC(=O)NC=C2C(C)(C)CCC(=O)O)cc1Cl` (single isomer, unassigned) [Example 130, 4-{4-[3-chloro-4-(3,3-dimethyl-butyl)-phenyl]-4-methyl-2-oxo-1,2,3,4-tetrahydro-pyrimidin-5-yl}-4-methyl-pentanoic Acid]: the pEC50 in experiment [1] (setting [3]) is 8.00; in experiment [2] (setting [4]), 7.72.
As for `CC(C)C1=CN([C@@H]2CCC[C@@H]2C(=O)O)C(=O)N[C@@]1(C)c1ccc(CCC(C)(C)C)c(Cl)c1` [Example 234], the pEC50 in experiment [1] (setting [5]) was 6.02; in experiment [2] (setting [6]), 6.27.
As to `COCC(C)C1=CN(C23CCC(C(=O)O)(C2)C3)C(=O)N[C@@]1(C)c1ccc(CCC(C)(C)C)c(Cl)c1` (single isomer, unassigned) [Example 351], the pEC50 in experiment [1] (setting [5]) is 8.40; in experiment [2] (setting [6]), 7.96.
The corresponding values for `COC[C@H]1C[C@H](N2C=C(C(C)(C)CCC(=O)O)[C@](C)(c3ccc(CCC(C)(C)C)c(Cl)c3)NC2=O)C1` [Example 198] are 7.92 and 7.59.
With `CC(C)C1=CN(CCCC(=O)O)C(=O)N[C@]1(C)c1ccc(CCC(C)(C)C)c(Cl)c1` [Example 14], the pEC50 in experiment [1] (setting [3]) and in experiment [2] (setting [4]) was less than 5.10 throughout. Further, in experiment [1], the “hRORγ luciferase activity, %-of-control” value was “(69%)”. In experiment [2], the “mRORγ luciferase activity, %-of-control” value is on record as “(59%)”.
Take `C=C(C)C1=CN(CCC(=O)O)C(=O)N[C@@]1(C)c1ccc(CCC(C)(C)C)c(Cl)c1` [Example 292]: the pEC50 was 7.05 in experiment [1] (setting [5]) and 7.14 in experiment [2] (setting [6]).
For `CC(C)C1=CN(CCC(C)C(=O)O)C(=O)NC1(C)c1ccc(CCC(C)(C)C)c(Cl)c1` (single isomer, unassigned) [Example 25], the negative-log EC50 (pEC50) in experiment [1] (setting [3]) and in experiment [2] (setting [4]) was greater than 7.49 each time.
`CC(C)(C)COc1ccc(C2NC(=O)NC=C2C(C)(C)C(=O)O)cc1Cl` (racemic) [Example 2]: the negative logarithm of the EC50 (pEC50) in experiment [1] (setting [3]) is less than 4.70; in experiment [2] (setting [4]), 4.88. Besides, the “hRORγ luciferase activity, %-of-control” value in experiment [1] was “(55%)”.
With `CC(C)(C)CCc1ccc([C@]2(C)NC(=O)N(CCC(=O)O)C=C2C2CC(F)(F)C2)cc1C(F)(F)F` [Example 343], the results for the pEC50 in experiment [1] (setting [5]) and in experiment [2] (setting [6]) were 7.42 and 7.72, respectively.
Turning to `CC(C)C1=CN(CCC(C)C(=O)O)C(=O)NC1(C)c1ccc(OCC(C)(C)C)c(Cl)c1` (single isomer, unassigned) [Example 20], the pEC50 is 5.53 in experiment [1] (setting [3]) and 5.60 in experiment [2] (setting [4]).
`COCCN1C=C(c2cnn(C(C)(C)C(=O)O)c2)[C@](C)(c2ccc(CCC(C)(C)C)c(Cl)c2)NC1=O` [Example 296]: the pEC50 was 5.43 in experiment [1] (setting [5]) and 5.34 in experiment [2] (setting [6]).
Consider `CC(C)C1=CN(CCC(=O)O)C(=O)N[C@@]1(C)c1ccc(CCC2(C)CC2)c(Cl)c1` [Example 132], for which the pEC50 in experiment [1] (setting [3]) is 7.74; in experiment [2] (setting [4]), 7.85.
Turning to `CC(C)C1=CN([C@H]2CC[C@@H](C(=O)O)CC2)C(=O)N[C@]1(C)c1ccc(CCC(C)(C)C)c(Cl)c1` [Example 66], the pEC50 was 5.44 in experiment [1] (setting [3]) and 5.57 in experiment [2] (setting [4]).
The corresponding values for `CC(C)C1=CN([C@H]2C[C@](C)(C(=O)O)C2)C(=O)N[C@@]1(C)c1ccc(CCC(C)(C)C)c(Cl)c1` [Example 112] are 7.68 and 7.72.
`CC(C)C1=CN(CCC(=O)O)C(=O)N[C@]1(C)c1ccc(CCC2CCC2)c(Cl)c1` [Example 121]: the pEC50 in experiment [1] (setting [3]) and in experiment [2] (setting [4]) was less than 5.10 throughout. Also, in experiment [1], the “hRORγ luciferase activity, %-of-control” value is reported as “(62%)”. The “mRORγ luciferase activity, %-of-control” value in experiment [2] is on record as “(85%)”.
With `CCC1=CN(CCCC(=O)O)C(=O)N[C@]1(C)c1ccc(CCC(C)(C)C)c(Cl)c1` [Example 68], the figures for the pEC50 in experiment [1] (setting [3]) and in experiment [2] (setting [4]) were 5.91 and 5.76, respectively.
On to `CC(C)C1=CN(C2CCCC(C(=O)O)C2)C(=O)N[C@@]1(C)c1ccc(CCC(C)(C)C)c(Cl)c1` (single isomer, unassigned) [Example 257], for which the pEC50 was 6.78 in experiment [1] (setting [5]) and 6.94 in experiment [2] (setting [6]).
With `CCCCc1ccc(C2(C)NC(=O)N(CCCC(=O)O)C=C2C(C)C)cc1` (racemic) [Example 84], the figures for the pEC50 in experiment [1] (setting [3]) and in experiment [2] (setting [4]) were 6.13 and 6.30, respectively.
The corresponding values for `CC(C)C1=CN(C23CC(C(=O)O)(C2)C3)C(=O)N[C@@]1(C)c1ccc(CCC(C)(C)C)c(Cl)c1` [Example 186] are 7.04 and 6.94.
With `COCCC1=CN(c2ccc(C(=O)O)cc2)C(=O)N[C@@]1(C)c1ccc(CCC(C)(C)C)c(C(F)(F)F)c1` [Example 323], the figures for the pEC50 in experiment [1] (setting [5]) and in experiment [2] (setting [6]) were 7.29 and 7.64, respectively.
For `Cc1cc(N2C=C(C(C)C)[C@](C)(c3ccc(CCC(C)(C)C)c(Cl)c3)NC2=O)ccc1C(=O)O` [Example 266], in that order: 7.92 and 7.77.
In the case of `CC(C)CC1=CN(CCC(=O)O)C(=O)N[C@@]1(C)c1ccc(OCC(C)(C)C)c(Cl)c1F` [Example 201], the pEC50 in experiment [1] (setting [5]) is 7.22; in experiment [2] (setting [6]), 7.29.
The corresponding values for `COC1CC(C2=CN(c3ccc(C(=O)O)cc3)C(=O)N[C@@]2(C)c2ccc(CCC(C)(C)C)c(Cl)c2)C1` (single isomer, unassigned) [Example 276] are 7.55 and 7.33.
With `CC(C)C1=CN(CCC(=O)O)C(=O)N[C@@]1(C)c1ccc(CC[Si](C)(C)C)c(Cl)c1` [Example 158], the pEC50 in experiment [1] (setting [3]) is 7.52; in experiment [2] (setting [4]), 7.64.
For the compound `CC(C)C1=CN(CCCC(C)(C)C(=O)O)C(=O)N[C@]1(C)c1ccc(CCC(C)(C)C)c(Cl)c1` [Example 74], the pEC50 in experiment [1] (setting [3]) was 6.01; in experiment [2] (setting [4]), 5.96.
As to `CC(C)C1=CN(CCC(=O)O)C(=O)N[C@@]1(C)c1ccc2c(c1)CC(C)(C)C2` [Example 113], the pEC50 in experiment [1] (setting [3]) was 5.52; in experiment [2] (setting [4]), 5.85.
The corresponding values for `CC(C)C1=CN([C@H]2C[C@@H](C(=O)O)C2)C(=O)N[C@]1(C)c1ccc(CCC(C)(C)C)c(Cl)c1` [Example 45] are 5.13 and 5.12.
Consider `CC(C)C1=CN([C@H]2C[C@H](CC(=O)O)C2)C(=O)N[C@]1(C)c1ccc(CCC(C)(C)C)c(Cl)c1` (single isomer, unassigned) [Example 107], for which the pEC50 in experiment [1] (setting [3]) is 5.41; in experiment [2] (setting [4]) it was 5.70.
As for `CC(C)C1=CN(CCC(=O)O)C(=O)N[C@@]1(C)c1ccc(CC2CCC(C)(C)CC2)c(Cl)c1` [Example 286], the figures for the negative-log EC50 (pEC50) in experiment [1] (setting [5]) and in experiment [2] (setting [6]) were 6.57 and 7.42, respectively.
The corresponding values for `CC(C)(C)CCc1ccc([C@]2(C)NC(=O)N(CCC(=O)O)C=C2C2CC(F)(F)C2)cc1Cl` [Example 319] are 7.89 and 7.85.
For `CC(C)(C)CCc1ccc([C@]2(C)NC(=O)N(CCCC(=O)O)C=C2C2CCOCC2)cc1Cl` [Example 92], the pEC50 was 7.89 in experiment [1] (setting [3]) and 7.70 in experiment [2] (setting [4]).
Turning to `CC(C)(C)CCc1ccc([C@]2(C)NC(=O)N(c3ccc(C(=O)O)cc3)C=C2CCCOC(C)(C)C)cc1Cl` [Example 313], the values for the pEC50 in experiment [1] (setting [5]) and in experiment [2] (setting [6]) were 6.59 and 6.44, respectively.
On to `CC(C)C1=CN([C@H]2C[C@H](C(=O)O)C2)C(=O)N[C@]1(C)c1ccc(CCC(C)(C)C)c(Cl)c1` [Example 41], for which the negative-log EC50 (pEC50) in experiment [1] (setting [3]) and in experiment [2] (setting [4]) was less than 5.10 each time. For the same compound, in experiment [1], the “hRORγ luciferase activity, %-of-control” value is recorded as “(59%)”. Further, the “mRORγ luciferase activity, %-of-control” value in experiment [2] is listed as “(61%)”.
